Laboratory results as given in US12172989B2, “Histone acetyltransferase (HAT) inhibitor and use thereof” (SHANGHAI INSTITUTE OF MATERIA MEDICA, CHINESE ACADEMY OF …, priority 2018, dated 2024).
pIC50: −log10 of the molar value.

Legend:
[1] = molecular target: T1, histone acetyltransferase p300 (Homo sapiens, UniProt Q09472); test: Histone acetyltransferase (p300) activity assay (radioisotope, [3H]-Ac-CoA); type: biochemical; conditions: p300 0.05 nM; histone peptide 600 nM, [3H]-Ac-CoA 250 nM; 60 min at room temperature; read-out: Inhibition rate IC50
T1 construct: purchased BPS Corporation 50071
T1 sequence (Q09472 1284-1673 limits assumed): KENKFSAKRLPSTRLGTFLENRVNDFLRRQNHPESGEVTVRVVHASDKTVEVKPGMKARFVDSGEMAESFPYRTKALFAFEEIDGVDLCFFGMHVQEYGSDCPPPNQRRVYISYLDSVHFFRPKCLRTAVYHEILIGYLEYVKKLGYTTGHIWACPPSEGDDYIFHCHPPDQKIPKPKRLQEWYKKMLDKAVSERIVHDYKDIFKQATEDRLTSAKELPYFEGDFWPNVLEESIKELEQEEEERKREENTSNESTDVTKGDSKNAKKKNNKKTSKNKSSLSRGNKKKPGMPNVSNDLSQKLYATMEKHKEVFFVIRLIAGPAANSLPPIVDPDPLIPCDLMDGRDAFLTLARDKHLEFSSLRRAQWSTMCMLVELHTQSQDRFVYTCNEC
Experimental: The reaction was finally terminated with Ac-CoA (Sigma, Cat. No. A2056) without isotope labeling. If the activity of the acetyltransferase p300 was inhibited, the isotope signal cannot be detected on the substrate polypeptide. Therefore, the inhibitory activity of the compound against the acetyltransferase p300 was evaluated.
In the enzyme reaction system, 200 nL of a diluted compound (100% DMSO) was first transferred to a test plate using Echo, where the final concentration of the compound in the enzyme reaction system ranges from 0.25 to 5000 nM. Then 10 μL/well of p300 protein (final concentration of 0.05 nM) was transferred therein, and incubated with the compound for 15 min at room temperature. Then 10 μL/well of a substrate mixture (final concentrations of histone peptide and [^3H]—Ac-CoA were 600 nM and 250 nM, respectively) was added to start the enzyme-catalyzed reaction, and incubated at room temperature for 60 min. Then 10 µL/well of a 250 μM cold Ac-CoA solution was added to stop the reaction. Finally 25 μL/well of the reaction solution was transferred to a 384-well Flashplate (Perkin Elmer, Cat. No. SMP410A001PK), and incubated at room temperature for 1 h. The resultant was washed with double distilled water+0.1% Tween-20 three times. The signal value was read by using Microbeta. The data was analyzed by using GraphPad Prism 5.0 software to obtain IC50.

[2] = tested on: Human castration resistant prostate cancer cell line LNCaP clone FGC; test: Cell growth inhibition experiment (CellTiter-Glo), LNCaP clone FGC; type: cell-based; conditions: Homo sapiens, 120 h, LNCaP clone FGC cells treated with the compound for 5 days
Experimental: (§1) Human castration resistant prostate cancer cell line 22Rv1 and LNCaP clone FGC (22Rv1 cell line was from ATCC, CRL-2505, LNCaP clone FGC cell line was purchased from Cell Bank of the Chinese Academy of Sciences) were cultured with RPMI 1640 medium (Gibco, available from Life Technologies Corporation, 22400-089) containing 10% fetal bovine serum (Gibco, available from Life Technologies, 10099-141) and 1% antibiotics (penicillin and streptomycin, available from Life Technologies Corporation, 10378016) in a CO2 cell incubator (37° C., 5% CO2). In the cell growth inhibition experiment, 22Rv1 and LNCaP clone FGC cells in exponential growth phase were seeded on a 96-well plate (purchased from Corning Company, 3599) with a volume of 150 μL/well and a cell density of 1,500 cells/well. After seeded, the plate was placed in a CO2 incubator to incubate overnight to allow the cells to adhere. On the next day, 50 μL of a compound at different concentrations diluted in 3-fold gradient or DMSO were added in a 96-well plate containing the cells. The final concentration of the compound ranges from 0.3 to 10000 nM, and the final concentration of DMSO is 0.05% as control group. The cells were treated by the compound for 5 days. Cell viability was measured using CellTiter-Glo reagent (purchased from Promega, G7572): the cell treated with the compound for 5 days was added with CellTiter-Glo reagent at 40 μL/well, incubated at room temperature for 10 min, transferred to a white 96-well plate (OptiPlate-96, purchased from PerkinElmer, 605299) by 70 μL. Subsequently, the luminescence signal was detected using a multifunctional microplate reader EnVision (purchased from PerkinElmer) at a wavelength of 400-700 nm. The data was analyzed by using GraphPad Prism 5.0 software to obtain IC50.

[3] = tested on: Human castration resistant prostate cancer cell line 22Rv1; test: Cell growth inhibition experiment (CellTiter-Glo), 22Rv1; type: cell-based; conditions: Homo sapiens, 120 h, 22Rv1 cells treated with the compound for 5 days
Experimental: as §1

[4] = tested on: human mantle cell lymphoma (MCL) cell line MAVER-1; test: Cell growth inhibition experiment (CellTiter-Glo), MAVER-1; type: cell-based; conditions: Homo sapiens, Maver1, 120 h, MAVER-1 cells treated with the compound for 5 days
Experimental: The human mantle cell lymphoma (MCL) cell line MAVER-1 (from ATCC, CRL-3008) was cultured with RPMI 1640 medium (Gibco, available from Life Technologies Corporation, 22400-089) containing […] (Gibco, available from Life Technologies, 10099-141) and 1% antibiotics (penicillin and streptomycin, available from Life Technologies Corporation, 10378016) in a CO2 cell incubator (37° C., 5% CO2). In the cell growth inhibition experiment, MAVER-1 cells in exponential growth phase were seeded on a 96-well plate (purchased from Corning Company, 3599) in a volume of 100 μL/well and a cell density of 1*10E5 cells/well. After seeded, the plate was placed in a CO2 incubator to culture for 1 h. 100 μL of a compound at different concentrations diluted in 3-fold gradient or DMSO were added in a 96-well plate containing the cells. The final concentration of the compound ranges from 0.3 to 10000 nM, and the final concentration of DMSO is 0.05% as control group. The cells were treated with the compound for 5 days. Cell viability was measured using CellTiter-Glo reagent (purchased from Promega, G7572): the cells treated with the compound for 5 days was added with CellTiter-Glo reagent at 20 μL/well, incubated at room temperature for 10 min, transferred to a white 96-well plate (OptiPlate-96, purchased from PerkinElmer, 605299) by 80 μL. Subsequently, the luminescence signal was detected by using a multifunctional microplate reader EnVision (purchased from PerkinElmer) at a wavelength of 400-700 nm. The data was analyzed by using GraphPad Prism 5.0 software to obtain IC50.

| pIC50 [1] | pIC50 [2] | pIC50 [3] | pIC50 [4] | Structure (SMILES) |
| --- | --- | --- | --- | --- |
| 7.92 | 7.11 |  |  | CNC(=O)Nc1ccc2c(c1)CC[C@@]21OC(=O)N(CC(=O)N2Cc3ccccc3OC[C@H]2C)C1=O [SYY-B014-2] |
| 8.04 | 7.32 | 7.40 |  | CNC(=O)Nc1ccc2c(c1)CC[C@]21OC(=O)N(CC(=O)N2Cc3ccccc3CC[C@H]2C(F)(F)F)C1=O [SYY-B027-1] |
| 8.32 | 7.11 | 6.90 |  | CNC(=O)Nc1ccc2c(c1)CCC21NC(=O)N(CC(=O)N2Cc3ccc(F)cc3CC[C@H]2C2CC2)C1=O (stereo partly shown) [SYY-B033] |
| > 8.30 |  | > 6.52 |  | NC1(C(=O)Nc2ccc3c(c2)CC[C@]32OC(=O)N(CC(=O)N3Cc4ccc(F)cc4CC[C@H]3C3CC3)C2=O)CC1 [SYY-B035-1] |
| > 8.30 |  | > 6.52 |  | NC1(C(=O)Nc2ccc3c(c2)CC[C@@]32OC(=O)N(CC(=O)N3Cc4ccc(F)cc4CC[C@H]3C3CC3)C2=O)CC1 [SYY-B035-2] |
| 8.82 | 7.89 | 7.19 |  | CC(C)(N)C(=O)Nc1ccc2c(c1)CC[C@]21OC(=O)N(CC(=O)N2Cc3ccc(F)cc3CC[C@H]2C2CC2)C1=O [SYY-B037-1] |
| 9.00 | 8.22 | 7.89 |  | CC(C)(N)C(=O)Nc1ccc2c(c1)CC[C@@]21OC(=O)N(CC(=O)N2Cc3ccc(F)cc3CC[C@H]2C2CC2)C1=O [SYY-B038-1] |
| 8.72 | 7.28 | 7.13 |  | NC1(C(=O)Nc2ccc3c(c2)CC[C@]32OC(=O)N(CC(=O)N3Cc4ccc(F)cc4CC[C@H]3C3CC3)C2=O)CCC1 [SYY-B039-1] |
| 8.92 | 7.82 | 7.44 |  | NC1(C(=O)Nc2ccc3c(c2)CC[C@@]32OC(=O)N(CC(=O)N3Cc4ccc(F)cc4CC[C@H]3C3CC3)C2=O)CCC1 [SYY-B039-2] |
| 8.37 | > 7.00 | > 7.00 |  | Cn1cc(-c2ccc3c(c2)CC[C@]32OC(=O)N(CC(=O)N3Cc4ccc(F)cc4CC[C@H]3C3CC3)C2=O)cn1 [SYY-B041-1] |
| > 8.30 |  | > 7.30 |  | Cn1cc(-c2ccc3c(c2)CCC32NC(=O)N(CC(=O)N3Cc4ccc(F)cc4CC[C@H]3C3CC3)C2=O)cn1 (stereo partly shown) [SYY-B043] |
| > 8.30 |  | > 7.00 |  | CNC(=O)Cn1cc(-c2ccc3c(c2)CCC32NC(=O)N(CC(=O)N3Cc4ccc(F)cc4CC[C@H]3C3CC3)C2=O)cn1 (stereo partly shown) [SYY-B045] |
| 8.62 |  | 7.98 | 7.19 | CNC(=O)Nc1ccc2c(c1)CC[C@@]21OC(=O)N(CC(=O)N2Cc3cc(F)ccc3OC[C@H]2C(F)(F)F)C1=O [SYY-B057-2] |
| > 8.00 |  |  | > 7.70 | CNC(=O)Nc1ccc2c(c1)OCCC21NC(=O)N(CC(=O)N2Cc3ccc(F)cc3CC[C@H]2C2CC2)C1=O (stereo partly shown) [SYY-B074] |
| > 8.30 |  | > 7.70 | > 7.70 | CNC(=O)Nc1ccc2c(c1)OCCC21OC(=O)N(CC(=O)N2Cc3ccc(F)cc3CC[C@H]2C2CC2)C1=O (stereo partly shown) [SYY-B077] |
| > 7.70 |  | > 7.00 | > 7.30 | CNC(=O)Nc1ccc2c(c1)CCC21NC(=O)N(CC(=O)N2Cc3cc(F)ccc3OC[C@H]2C(F)(F)F)C1=O (stereo partly shown) [SYY-B083] |

| pIC50 [1] | pIC50 [2] | pIC50 [3] | pIC50 [4] | Structure (SMILES) |
| --- | --- | --- | --- | --- |
| > 7.70 |  | > 7.00 | > 7.70 | Cn1cc(-c2ccc3c(c2)CCC32OC(=O)N(CC(=O)N3Cc4cc(F)ccc4OC[C@H]3C(F)(F)F)C2=O)cn1 (stereo partly shown) [SYY-B084] |
| > 7.70 |  | > 7.30 | > 8.00 | Cn1cc(-c2ccc3c(c2)CCC32NC(=O)N(CC(=O)N3Cc4cc(F)ccc4OC[C@H]3C(F)(F)F)C2=O)cn1 (stereo partly shown) [SYY-B085] |
| > 8.00 |  | > 7.70 | ≥ 7.70 | CNC(=O)Nc1ccc2c(c1)CCCC21OC(=O)N(CC(=O)N2Cc3cc(F)ccc3OC[C@H]2C2CC2)C1=O (stereo partly shown) [SYY-B086] |
| > 7.70 |  |  | > 7.70 | CNC(=O)Nc1ccc2c(c1)CCCC21NC(=O)N(CC(=O)N2Cc3cc(F)ccc3OC[C@H]2C2CC2)C1=O (stereo partly shown) [SYY-B092] |
| > 7.70 |  | > 7.70 | > 7.70 | Cn1cc(-c2ccc3c(c2)CCCC32NC(=O)N(CC(=O)N3Cc4cc(F)ccc4OC[C@H]3C3CC3)C2=O)cn1 (stereo partly shown) [SYY-B093] |
| > 7.70 |  | 6.92 |  | CNC(=O)Nc1ccc2c(c1)OCCC21NC(=O)N(CC(=O)N2Cc3cc(F)ccc3OC[C@H]2C2CC2)C1=O (stereo partly shown) [SYY-B099] |
| > 7.00 |  |  |  | Cn1cc(-c2cc3c(cn2)C2(CC3)NC(=O)N(CC(=O)N3Cc4cc(F)ccc4OC[C@H]3C(F)(F)F)C2=O)cn1 (stereo partly shown) [SYY-B161] |
| > 7.70 |  |  |  | Cn1cc(-c2cnc3c(c2)CCC32NC(=O)N(CC(=O)N3Cc4cc(F)ccc4OC[C@H]3C(F)(F)F)C2=O)cn1 (stereo partly shown) [SYY-B163] |
| > 7.70 |  |  |  | Cn1cc(-c2ccc3c(n2)CCC32NC(=O)N(CC(=O)N3Cc4cc(F)ccc4OC[C@H]3C(F)(F)F)C2=O)cn1 (stereo partly shown) [SYY-B165] |
| > 7.70 |  |  |  | Cn1cc(-c2ccc3c(c2)C(O)C[C@]32NC(=O)N(CC(=O)N3Cc4cc(F)ccc4OC[C@H]3C3CC3)C2=O)cn1 (stereo partly shown) [SYY-B170-2] |
| > 7.70 |  | > 7.00 | > 7.30 | CNC(=O)Nc1ccc2c(c1)CCC21NC(=O)N(CC(=O)N2Cc3cc(F)ccc3OC[C@H]2C2CC2)C1=O (stereo partly shown) [ZB-P-21] |
| > 8.00 |  | > 8.00 | > 8.00 | Cn1cc(-c2ccc3c(c2)CCC32NC(=O)N(CC(=O)N3Cc4cc(F)ccc4OC[C@H]3C3CC3)C2=O)cn1 (stereo partly shown) [ZB-P-28] |
| > 8.00 |  | > 8.00 | > 8.00 | Cn1cc(-c2ccc3c(c2)CCC32OC(=O)N(CC(=O)N3Cc4cc(F)ccc4OC[C@H]3C3CC3)C2=O)cn1 (stereo partly shown) [ZB-P-29] |
| > 8.00 |  |  |  | CNC(=O)Nc1cc2c(cc1F)C1(CC2)NC(=O)N(CC(=O)N2Cc3ccc(F)cc3CC[C@H]2C2CC2)C1=O (stereo partly shown) [ZB-P-30] |
| > 8.30 |  |  |  | CNC(=O)Nc1cc2c(cc1F)C1(CC2)OC(=O)N(CC(=O)N2Cc3ccc(F)cc3CC[C@H]2C2CC2)C1=O (stereo partly shown) [ZB-P-31] |
